# Data published in patent publication US20250376469A1, “INDOLIZINE DERIVATIVES FOR TREATING TRPM3-MEDIATED DISORDERS” (Katholieke Universiteit Leuven, priority 2022, published 2025).
# Target: T1, mouse TRPM3α2 (mTRPM3) ion channel (Mus musculus, UniProt J9SQF3)
# T1 construct: expressed in transfected cells; host or cells: flip-in HEK293
# Test: TRPM3 ion channel driven Ca2+ uptake (Fluo-4 AM assay, pregnenolone sulfate stimulated)
# Assay type: cell-based
# Conditions: TRPM3 overexpressing flip-in HEK293 cells, channel opened with pregnenolone sulfate (PS) 50 μM, 2.4 mM Ca2+
# Protocol: In order to monitor the inhibition of the mouse TRPM3α2 (mTRPM3) ion channel by the compounds of the invention, a cellular system making use of an mTRPM3alpha2 or hTRPM3 overexpressing cell line (flip-in HEK293) was used. The TRPM3 channel was stimulated/opened with Pregnenolone sulfate (PS) (50 μM) which results in Ca^2+ influx.
# For mTRPM3, the intracellular Ca^2+ was measured with a Calcium responsive dye, Fluor-4 AM ester (Invitrogen). Cells were cultured until a confluence of 80-90%, washed with Versene (Invitrogen) and detached from the surface by a short incubation with 0.05% Trypsin (Invitrogen). The trypsination process was stopped by the addition of complete cell culture medium (DMEM, glutamax, 10% FCS, NEAA, Pen-Strep). Cells were collected and resuspended in Krebs buffer without Calcium at RT.
# Prior the cell seeding (±2000 cells/well into a black, 384 well plate (Greiner)) the diluted compound was added in the assay plate, together with the PS dissolved in Krebs buffer containing Calcium. […] Directly after cell addition the plates were read on an Envision fluorescence reader (Perkin Elmer) by an Excitation of 485 nm and emission at 535 nm.
# Channel inhibition was calculated compared to a non-PS stimulated control versus a condition stimulated with PS (50 μM) with vehicle. The ability of a the compounds of the invention to inhibit this activity was determined as: Percentage inhibition=[1−((RFU determined for sample with test compound present−RFU determined for sample with positive control inhibitor) divided by (RFU determined in the presence of vehicle−RFU determined for sample with positive control inhibitor))]*100.
# The activities of the Example compounds […] tested are depicted in the table below. The activity ranges A, B and C refer to IC50 values in the Fluo-4 AM assay as follows: […]
# T1 sequence (J9SQF3 1-1709 isoform J9SQF3-12): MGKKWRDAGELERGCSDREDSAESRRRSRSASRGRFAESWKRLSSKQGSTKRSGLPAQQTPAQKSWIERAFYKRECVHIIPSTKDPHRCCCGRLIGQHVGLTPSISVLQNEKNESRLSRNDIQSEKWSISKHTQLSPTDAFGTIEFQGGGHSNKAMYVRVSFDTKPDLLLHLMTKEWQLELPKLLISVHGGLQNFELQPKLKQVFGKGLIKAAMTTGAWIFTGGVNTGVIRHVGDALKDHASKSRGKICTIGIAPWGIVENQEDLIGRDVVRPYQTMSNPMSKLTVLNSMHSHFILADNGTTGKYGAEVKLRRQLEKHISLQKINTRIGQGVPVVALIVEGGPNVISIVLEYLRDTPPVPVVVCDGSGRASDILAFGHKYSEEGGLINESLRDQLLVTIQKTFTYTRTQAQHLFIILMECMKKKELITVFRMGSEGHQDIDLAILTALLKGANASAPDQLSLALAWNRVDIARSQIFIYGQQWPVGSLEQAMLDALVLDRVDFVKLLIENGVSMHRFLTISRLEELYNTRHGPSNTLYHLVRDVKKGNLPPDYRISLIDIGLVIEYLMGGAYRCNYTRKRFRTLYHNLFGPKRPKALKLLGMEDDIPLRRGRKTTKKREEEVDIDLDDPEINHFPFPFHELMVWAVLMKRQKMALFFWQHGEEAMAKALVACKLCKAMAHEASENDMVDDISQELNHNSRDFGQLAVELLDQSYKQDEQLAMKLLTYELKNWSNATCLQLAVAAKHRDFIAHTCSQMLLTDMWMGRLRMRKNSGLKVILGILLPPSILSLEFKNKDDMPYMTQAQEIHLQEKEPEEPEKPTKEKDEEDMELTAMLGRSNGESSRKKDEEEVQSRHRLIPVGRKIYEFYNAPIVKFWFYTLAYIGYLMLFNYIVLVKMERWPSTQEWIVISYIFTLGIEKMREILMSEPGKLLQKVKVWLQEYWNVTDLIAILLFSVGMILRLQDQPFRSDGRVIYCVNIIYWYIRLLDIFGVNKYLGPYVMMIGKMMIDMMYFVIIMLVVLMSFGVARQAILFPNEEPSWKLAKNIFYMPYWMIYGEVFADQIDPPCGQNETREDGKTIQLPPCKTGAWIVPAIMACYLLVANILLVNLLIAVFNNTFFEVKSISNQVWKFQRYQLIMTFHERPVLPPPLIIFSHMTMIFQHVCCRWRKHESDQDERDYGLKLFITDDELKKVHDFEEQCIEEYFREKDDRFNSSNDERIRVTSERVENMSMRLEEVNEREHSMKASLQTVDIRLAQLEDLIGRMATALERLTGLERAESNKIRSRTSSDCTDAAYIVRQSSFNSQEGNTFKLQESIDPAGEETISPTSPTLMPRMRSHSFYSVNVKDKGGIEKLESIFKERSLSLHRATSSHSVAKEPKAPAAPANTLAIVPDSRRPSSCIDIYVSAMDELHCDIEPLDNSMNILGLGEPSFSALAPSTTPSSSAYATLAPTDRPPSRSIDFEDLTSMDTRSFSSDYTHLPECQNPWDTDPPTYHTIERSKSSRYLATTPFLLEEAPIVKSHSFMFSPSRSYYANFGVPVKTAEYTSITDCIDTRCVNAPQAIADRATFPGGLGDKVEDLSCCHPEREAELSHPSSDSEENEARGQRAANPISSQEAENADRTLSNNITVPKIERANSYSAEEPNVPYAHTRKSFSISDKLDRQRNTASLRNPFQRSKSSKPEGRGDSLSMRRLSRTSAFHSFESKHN
row,Structure (SMILES),IC50
1,"CC(=O)C(C)NC(=O)c1c(C)cc2ccc(OCC(F)F)cn12 (single isomer, unassigned) [Cpd 028 - En2]",> 20000 nM
2,"Cc1cc2ccc(OCc3ccccc3)cn2c1C(=O)NC(C)(CO)CC(F)F (single isomer, unassigned) [Cpd 035 - En2]",1000 to 20000 nM
3,"CC(=O)C(C)NC(=O)c1c(C)cc2ccc(OCC3CC3)cn12 (single isomer, unassigned) [Cpd 023 - En2]",1000 to 20000 nM
4,"Cc1cc2ccc(OCc3ccccc3F)cn2c1C(=O)NC(C)(CO)CO [Cpd 006, N-(1,3-dihydroxy-2-methylpropan-2-yl)-6-[(2-fluorophenyl)methoxy]-2-methylindolizine-3-carboxamide]",< 1000 nM
5,"Cc1cc2ccc(OCc3ccccn3)cn2c1C(=O)NC(C)C(N)=O (single isomer, unassigned) [Cpd 018 - En2]",1000 to 20000 nM
6,"Cc1cc2ccc(OCC(F)F)cn2c1C(=O)NC1CNCCC1(F)F (single isomer, unassigned) [Cpd 027 - En1]",1000 to 20000 nM
7,"Cc1cc2ccc(OCc3ccccn3)cn2c1C(=O)NC1(CO)CCNC1=O (single isomer, unassigned) [Cpd 016 - En2]",1000 to 20000 nM
8,"COCC(C)(CO)NC(=O)c1c(C)cc2ccc(OCc3ccccn3)cn12 (single isomer, unassigned) [Cpd 032 - En1]",1000 to 20000 nM
9,"Cc1cc2ccc(OCC3CC3)cn2c1C(=O)NC1(CO)CCNC1=O (single isomer, unassigned) [Cpd 021 - En2]",1000 to 20000 nM
10,"Cc1cc2ccc(OCc3ccccn3)cn2c1C(=O)NC1(CO)CCNC1=O (single isomer, unassigned) [Cpd 016 - En1]",< 1000 nM
11,"Cc1cc2ccc(OCC(F)F)cn2c1C(=O)NC(C)(CO)CO [Cpd 025, 6-(2,2-difluoroethoxy)-N-(1,3-dihydroxy-2-methylpropan-2-yl)-2-methylindolizine-3-carboxamide]",1000 to 20000 nM
12,"Cc1cc2ccc(OCc3ccccc3)cn2c1C(=O)NC(CO)C(N)=O (single isomer, unassigned) [Cpd 034 - En2]",< 1000 nM
13,"Cc1cc2ccc(OCc3ccccn3)cn2c1C(=O)NC(C)(CO)C(N)=O (single isomer, unassigned) [Cpd 014 - En1]",< 1000 nM

# Results, then the compound that gave them:
row,IC50,Structure (SMILES)
1,< 1000 nM,"Cc1cc2ccc(OCc3cnccn3)cn2c1C(=O)NC1(CO)CCNC1=O (single isomer, unassigned) [Cpd 046 - En1]"
2,1000 to 20000 nM,"Cc1cc2ccc(OCc3c(F)cnn3C)cn2c1C(=O)NC(CO)CC(F)(F)F (single isomer, unassigned) [Cpd 045 - En1]"
3,1000 to 20000 nM,"COc1ncccc1COc1ccc2cc(C)c(C(=O)NC3(CO)CCNC3=O)n2c1 (single isomer, unassigned) [Cpd 038 - En2]"
4,1000 to 20000 nM,"Cc1cc2ccc(OCc3ccccn3)cn2c1C(=O)NC(C)(CO)CC(F)F (single isomer, unassigned) [Cpd 036 - En2]"
5,> 20000 nM,"Cc1cc2ccc(OCc3cnccn3)cn2c1C(=O)NC(CO)CC(F)(F)F (single isomer, unassigned) [Cpd 041 - En2]"
6,> 20000 nM,"Cc1cc2ccc(OCc3c(F)cnn3C)cn2c1C(=O)NC(CO)CC(F)(F)F (single isomer, unassigned) [Cpd 045 - En2]"
